Consider 15 compounds from US5306639A, “DNA encoding glucanase enzymes” (priority 1985, dated 1994).

Read-outs that look alike come from different tables or passages of the source.

The subject of one assay is α-1,3 glucanase I. In words: Effects of metallic ions and enzyme inhibitors on α-1,3 glucanase I. Format: biochemical, Bacillus circulans BC-8. The procedure: (§1) Both α-1,3 glucanase I and II are inhibited by Fe^2+, Pb^2+, and […].
(§2) 0.1 ml of α-1,3 glucanase solution was added to 0.2 ml of 1.3-α-D glucan suspension (6 mg/ml, 50 mM phosphate buffer, pH 7.0), and the mixture was incubated for 16 hours at 40° C. The reaction was terminated by adding ethanol (final concentration was 60%), and amount of the sugar which had become soluble in this condition was determined by the phenol sulfuric acid method.
(§3) Under the above-mentioned reaction conditions, the enzyme activity which produced an amount of sugar soluble in 60% ethanol and corresponding to 100 nmol of glucose was defined as one unit. In practice, α-1,3 glucanase solutions of various concentrations were used for developing the standard curve, and the enzyme activity was read out on it.

For another assay, the target named is T1, dextranase (Arthrobacter sp., UniProt P39652).
T1 construct: the mature dextranase protein consisting of 591 amino acid residues; endogenous in cells; host or cells: Arthrobacter sp; CB-8 (FERM BP-995), enzyme purified from the culture
T1 sequence (P39652 50-640): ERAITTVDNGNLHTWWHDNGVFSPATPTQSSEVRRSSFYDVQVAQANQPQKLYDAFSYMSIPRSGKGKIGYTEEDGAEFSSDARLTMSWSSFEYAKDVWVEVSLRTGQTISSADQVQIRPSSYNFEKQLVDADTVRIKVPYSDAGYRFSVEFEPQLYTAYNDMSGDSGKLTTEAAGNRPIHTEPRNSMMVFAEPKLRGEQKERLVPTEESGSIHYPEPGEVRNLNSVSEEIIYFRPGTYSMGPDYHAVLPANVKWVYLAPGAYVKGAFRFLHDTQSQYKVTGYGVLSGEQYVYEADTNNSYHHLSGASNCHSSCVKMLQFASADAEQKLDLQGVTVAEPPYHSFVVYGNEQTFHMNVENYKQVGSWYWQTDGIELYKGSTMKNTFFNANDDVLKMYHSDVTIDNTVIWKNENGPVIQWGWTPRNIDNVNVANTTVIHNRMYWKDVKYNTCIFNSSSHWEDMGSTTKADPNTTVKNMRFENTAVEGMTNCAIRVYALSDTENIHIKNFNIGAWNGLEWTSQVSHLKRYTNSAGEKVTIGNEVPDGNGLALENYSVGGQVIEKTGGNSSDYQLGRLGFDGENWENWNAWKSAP
In words: Effects of metallic ions and enzyme inhibitors on dextranase activity. Format: biochemical, Arthrobacter sp. CB-8. The conditions noted are these: for inhibition of dextranase (in words): summary of Table 6; for activity at 1000 µM: read-out: Relative activity (%) of dextranase. The procedure: 0.1 ml of the enzyme solution is added to 0.9 ml of 50 mM phosphate buffer, pH 6.5, containing 0.555% dextran (molecular weight: 10,000~20,000),and the mixture is incubated at 37° C. for 30 minutes. After the reaction is stopped, the amount of reducing sugar produced is measured by Somogyi-Nelson method. The enzymatic activity which increases a reducing power equivalent to 1 μ mole of glucose per 1 minute was defined as one unit.

The next assay has as its system α-1,3 glucanase II. In words: Effects of metallic ions and enzyme inhibitors on α-1,3 glucanase II. Format: biochemical, Bacillus circulans BC-8. The procedure: as §1, §2, §3
The mark [1] stands for this setting: metallic ion or inhibitor 0.1 mM, none = 100.
Setting [2] is: metallic ion or inhibitor 1 mM, none = 100.

Take `O=[N+]([O-])[O-].[Ag+]` [AgNO3]: the “inhibition of α-1,3 glucanase I enzymatic activity” value with α-1,3 glucanase I was “significant inhibition”. Besides, at dextranase (setting [1]), the “Relative activity (%) of dextranase” value is 0%. At dextranase, the “inhibition of dextranase (in words)” value is “significantly inhibited”. Also, the “inhibition of α-1,3 glucanase II enzymatic activity” value in the assay on α-1,3 glucanase II is “significant inhibition”.
Consider `[Ca+2].[Cl-].[Cl-]` [CaCl2], for which the “Relative activity (%) of dextranase” value on dextranase (setting [2]) was 113%.
Regarding `O=S(=O)([O-])[O-].[Cu+2]` [CuSO4], the “Relative activity (%) of dextranase” value on dextranase (setting [1]) was determined as 7%. Besides, the “inhibition of dextranase (in words)” value on dextranase was “significantly inhibited”.
For the compound `O=C(O)CN(CCN(CC(=O)O)CC(=O)O)CC(=O)O` [EDTA], on dextranase, the activity at 1000 µM stood at 122%.
Take `[Cl][Fe][Cl]` [FeCl2]: the “inhibition of α-1,3 glucanase I enzymatic activity” value in the assay on α-1,3 glucanase I is listed as “inhibited”. In addition, the “Relative activity (%) of dextranase” value on dextranase (setting [2]) came out at 115%. Further, the “inhibition of α-1,3 glucanase II enzymatic activity” value in the assay with α-1,3 glucanase II was “inhibited”.
Turning to `[Cl][Fe]([Cl])[Cl]` [FeCl3], on dextranase (setting [2]), the “Relative activity (%) of dextranase” value was 104%.
For the compound `[Cl][Hg][Cl]` [HgCl2], in the assay with α-1,3 glucanase I, the “inhibition of α-1,3 glucanase I enzymatic activity” value is given as “significant inhibition”. In addition, the “Relative activity (%) of dextranase” value on dextranase (setting [1]) worked out at 0%. The “inhibition of dextranase (in words)” value against dextranase is listed as “significantly inhibited”. Further, the “inhibition of α-1,3 glucanase II enzymatic activity” value in the assay on α-1,3 glucanase II is reported as “significant inhibition”.
Consider `[Cl-].[K+]` [KCl], for which the “Relative activity (%) of dextranase” value on dextranase (metallic ion or inhibitor 10 mM, none = 100) was 113%.
`O=S(=O)([O-])[O-].[Mg+2]` [MgSO4]: the “Relative activity (%) of dextranase” value at dextranase (setting [2]) came out at 113%.
The same measure, in the same setting: the same measure for `[Cl][Mn][Cl]` [MnCl2]: 77%.
For `[Cl-].[Na+]` [NaCl], the “Relative activity (%) of dextranase” value on dextranase is recorded as 100%.
In the case of `[Cl][Pb][Cl]` [PbCl2], the “inhibition of α-1,3 glucanase I enzymatic activity” value in the assay on α-1,3 glucanase I is “inhibited”. Besides, the “Relative activity (%) of dextranase” value on dextranase (setting [2]) is recorded as 103%. In addition, the “inhibition of α-1,3 glucanase II enzymatic activity” value in the assay on α-1,3 glucanase II was “inhibited”.
For `[Cl-].[Cl-].[Zn+2]` [ZnCl2], at dextranase (setting [2]), the “Relative activity (%) of dextranase” value worked out at 77%.
Take `c1cnc2c(c1)ccc1cccnc12` [o-Phenanthroline]: the activity at 1000 µM at dextranase (setting [2]) was found to be 100%.
Turning to `O=C(O)c1cc[c]([Hg][Cl])cc1` [pCMB, p-chloromercuribenzoic acid], the “inhibition of α-1,3 glucanase I enzymatic activity” value with α-1,3 glucanase I is recorded as “significant inhibition”. Moreover, at dextranase (setting [2]), the “Relative activity (%) of dextranase” value is listed as 29%. Also, the “inhibition of dextranase (in words)” value against dextranase is “inhibited strongly”. The “inhibition of α-1,3 glucanase II enzymatic activity” value in the assay with α-1,3 glucanase II is “significant inhibition”.
